# Reference: US11104676B2 (priority 2018, dated 2021)
# Biological target: GST-tagged recombinant human TYRO3 kinase domain (Homo sapiens (Human), UniProt Q06418)
# Details: read-out: TYRO3 enzyme IC50
# GST-tagged recombinant human TYRO3 kinase domain, sequence (Q06418 518-790): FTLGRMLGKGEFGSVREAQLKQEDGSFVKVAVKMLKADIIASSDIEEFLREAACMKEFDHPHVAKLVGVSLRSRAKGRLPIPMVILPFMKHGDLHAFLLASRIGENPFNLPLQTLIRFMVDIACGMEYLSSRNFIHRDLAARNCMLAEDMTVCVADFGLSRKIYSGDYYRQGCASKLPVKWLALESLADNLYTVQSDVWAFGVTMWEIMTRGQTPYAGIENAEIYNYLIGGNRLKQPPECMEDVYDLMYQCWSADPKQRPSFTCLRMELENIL
row,SMILES,IC50 [nM]
1,"CCOC[C@H](C)Nc1n[nH]c2nccc(Oc3ccc(NC(=O)c4cc(C)cn(-c5ccc(F)cc5)c4=O)cc3F)c12 [Example 172, (S)-N-(4-((3-((1-ethoxypropan-2-yl)amino)-1H-pyrazolo[3,4-b]pyridin-4-yl)oxy)-3-fluorophenyl)-1-(4-fluorophenyl)-5-methyl-2-oxo-1,2-dihydropyridine-3-carboxamide]",133
2,"COCC(C)(C)Nc1n[nH]c2nccc(Oc3ccc(NC(=O)c4ccnn(-c5ccc(F)cc5)c4=O)cc3F)c12 [Example 18, N-(3-fluoro-4-((3-((1-methoxy-2-methylpropan-2-yl)amino)-1H-pyrazolo[3,4-b]pyridin-4-yl)oxy)phenyl)-2-(4-fluorophenyl)-3-oxo-2,3-dihydropyridazine-4-carboxamide]",131
3,"COCC(C)(C)Nc1n[nH]c2nccc(Oc3ccc(NC(=O)c4cn(CCO)c(=O)n(-c5ccc(F)cc5)c4=O)cc3F)c12 [Example 159, N-(3-fluoro-4-((3-((1-methoxy-2-methylpropan-2-yl)amino)-1H-pyrazolo[3,4-b]pyridin-4-yl)oxy)phenyl)-3-(4-fluorophenyl)-1-(2-hydroxyethyl)-2,4-dioxo-1,2,3,4-tetrahydropyrimidine-5-carboxamide]",420
4,"COCC1(Nc2n[nH]c3nccc(Oc4ccc(NC(=O)c5ccnn(-c6ccc(F)cc6)c5=O)cc4F)c23)CCCC1 [Example 20, N-(3-fluoro-4-((3-((1-(methoxymethyl)cyclopentyl)amino)-1H-pyrazolo[3,4-b]pyridin-4-yl)oxy)phenyl)-2-(4-fluorophenyl)-3-oxo-2,3-dihydropyridazine-4-carboxamide]",536
5,"CC(C)n1cc(C(=O)Nc2ccc(Oc3ccnc4[nH]nc(N[C@H](C)CO)c34)c(F)c2)c(=O)n(-c2cnn(C)c2)c1=O [Example 93, (R)-N-(3-fluoro-4-((3-((1-hydroxypropan-2-yl)amino)-1H-pyrazoo[3,4-b]pyridin-4-yl)oxy)phenyl)-1-isopropyl-3-(1-methyl-1H-pyrazol-4-yl)-2,4-dioxo-1,2,3,4-tetrahydropyrimidine-5-carboxamide]",767
6,"COCC(C)(C)Nc1n[nH]c2nccc(Oc3ccc(NC(=O)c4cn(C)c(=O)n(-c5ccc(F)cc5)c4=O)cc3F)c12 [Example 158, N-(3-fluoro-4-((3-((1-methoxy-2-methylpropan-2-yl)amino)-1H-pyrazolo[3,4-b]pyridin-4-yl)oxy)phenyl)-3-(4-fluorophenyl)-1-methyl-2,4-dioxo-1,2,3,4-tetrahydropyrimidine-5-carboxamide]",104
7,"O=C(Nc1ccc(Oc2ccnc3[nH]nc(NCC4CCS(=O)(=O)C4)c23)c(F)c1)c1ccnn(-c2ccc(F)cc2)c1=O (stereo not drawn) [Example 24, N-(4-((3-(((1,1-dioxidotetrahydrothiophen-3-yl)methyl)amino)-1H-pyrazolo[3,4-b]pyridin-4-yl)oxy)-3-fluorophenyl)-2-(4-fluorophenyl)-3-oxo-2,3-dihydropyridazine-4-carboxamide]",120
8,"CC(C)(O)C1(Nc2n[nH]c3nccc(Oc4ccc(NC(=O)c5ccnn(-c6ccc(F)cc6)c5=O)cc4F)c23)CCCC1 [Example 182, N-(3-fluoro-4-((3-((1-(2-hydroxypropan-2-yl)cyclopentyl)amino)-1H-pyrazolo[3,4-b]pyridin-4-yl)oxy)phenyl)-2-(4-fluorophenyl)-3-oxo-2,3-dihydropyridazine-4-carboxamide]",707
9,"CCn1nc(C(=O)Nc2ccc(Oc3ccnc4[nH]nc(N[C@@H](C)CO)c34)c(F)c2)c(=O)n(-c2ccc(F)c(F)c2)c1=O [Example 132, (S)-4-(3,4-difluorophenyl)-2-ethyl-N-(3-fluoro-4-((3-((1-hydroxypropan-2-yl)amino)-1H-pyrazolo[3,4-b]pyridin-4-yl)oxy)phenyl)-3,5-dioxo-2,3,4,5-tetrahydro-1,2,4-triazine-6-carboxamide]",348
